For the test, the target named is T1, KRAS G12C (Homo sapiens, UniProt P01116, G12C).
T1 construct: KRAS G12C (amino acid region: 1-169)
Description: Inhibitory activity on the KRAS G12C nucleotide (GDP-GTP) exchange reaction. The test is classed as biochemical. As to conditions: Bodipy FL GDP-bound KRAS G12C 25 nM; preincubation at 25° C. for 4 hours; SOS1 100 nM, GppNHp 1 μM, reaction for 30 minutes. The protocol: Test Example 2: Evaluation of Inhibitory Activity of Compounds on the KRAS G12C Nucleotide (GDP-GTP) Exchange Reaction
The inhibitory activity of compounds on the exchange reaction of GDP into GppNHp in Bodipy (trademark) FL-bound KRAS G12C was examined by fluorescence measurement using human recombinant KRAS G12C and SOS1 proteins.
For the preparation of KRAS G12C to which Bodipy FL GDP was bound, first, 50 µM KRAS G12C (amino acid region: 1-169) and 1 mM Bodipy FL GDP (Invitrogen, G22360) were incubated for 1 hour in a buffer (20 mM Tris-HCl (pH 7.5), 50 mM NaCl, 1 mM DTT) in ice in the presence of 2.5 mM EDTA. Thereafter, MgCl2 with a final concentration of 10 mM was added, and the mixture was incubated at room temperature for 30 minutes. The protein was allowed to pass through a NAP-5 column to remove free nucleotides and was used for compound evaluation.
For the measurement of the inhibitory activity of compounds on nucleotide exchange reaction, first, the compound of the disclosure was diluted stepwise with dimethyl sulfoxide (DMSO). Subsequently, a solution of the gradually diluted compound of the disclosure in DMSO (the final concentration of DMSO: 5%) and KRAS G12C (25 nM) bound to Bodipy FL GDP were added to a reaction buffer (20 mM Tris-HCl (pH 7.5), 100 mM NaCl, 1 mM MgCl2, 2 mM DTT, 0.1% Tween20), followed by preincubation at 25° C. for 4 hours. Thereafter, Son of Sevenless Homolog 1 (SOS1, amino acid region: 564-1049) and GppNHp (GMPPNP, Jena Bioscience GmbH, NU-401-50) were added such that their final concentration was 100 nM and 1 μM respectively, followed by reaction for 30 minutes. The change in fluorescence intensity of Bodipy FL (excitation wavelength: 485 nm, fluorescence wavelength: 520 nm) immediately after the start of reaction and after 30 minutes from the start of reaction was standardized. The signal value for only DMSO was determined to be 0% inhibition, and the signal value for no addition of GppNHp was determined to be 100% inhibition. The compound concentration at which 50% inhibition is achieved was determined to be the IC50 (nM) and was calculated.

The results in this text go back to patent US20230181536A1, “ANTICANCER COMBINATION THERAPY WITH N-(1-ACRYLOYL-AZETIDIN-3-YL)-2-((1H-INDAZOL-3-YL)AMINO)METHYL)-1H-IMIDAZOLE-5-CARBOXAMIDE INHIBITOR OF KRAS-G12C” (TAIHO PHARMACEUTICAL CO., LTD., priority 2020, published 2023).

SMILES strings stand for the structures.

T1 sequence (P01116 1-169 isoform P01116-2 G12C): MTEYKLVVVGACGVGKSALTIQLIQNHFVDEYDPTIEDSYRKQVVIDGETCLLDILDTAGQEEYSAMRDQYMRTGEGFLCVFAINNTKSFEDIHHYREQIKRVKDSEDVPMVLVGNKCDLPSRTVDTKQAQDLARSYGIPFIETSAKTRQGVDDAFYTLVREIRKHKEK

For `C=CC(=O)N1C[C@@H](NC(=O)c2c(C)nc(CNc3n[nH]c4cc(Cl)c(C(C)(C)C)cc34)n2C)[C@@H]1C` (relative stereo) [Example 59, N-(trans-1-acryloyl-2-methylazetidin-3-yl)-2-(((5-(tert-butyl)-6-chloro-1H-indazol-3-yl)amino)methyl)-1,4-dimethyl-1H-imidazole-5-carboxamide], half-maximal inhibition (IC50) was put at 85 nM.
The same measure for `C=CC(=O)N1CC(NC(=O)c2cnc(CNc3n[nH]c4cc(Cl)c(C(C)(C)C)cc34)n2C)C1` [Example 1, N-(1-acryloylazetidin-3-yl)-2-(((5-(tert-butyl)-6-chloro-1H-indazol-3-yl)amino)methyl)-1-methyl-1H-imidazole-5-carboxamide]: 16 nM; for `C=CC(=O)N1CC(NC(=O)c2sc(CNc3n[nH]c4cc(Cl)c(C(C)(C)C)cc34)nc2C)C1` [Example 2, N-(1-acryloylazetidin-3-yl)-2-(((5-(tert-butyl)-6-chloro-1H-indazol-3-yl)amino)methyl)-4-methylthiazole-5-carboxamide]: 365 nM.
With `C=CC(=O)N1CC(NC(=O)c2c(C)nc(CNc3n[nH]c4cc(Cl)c(C(C)(C)C)cc34)n2C)C1` [Example 3, N-(1-acryloylazetidin-3-yl)-2-(((5-(tert-butyl)-6-chloro-1H-indazol-3-yl)amino)methyl)-1,4-dimethyl-1H-imidazole-5-carboxamide], the 50% inhibitory concentration (IC50) was 9 nM.
With `C=CC(=O)N1CC(NC(=O)c2cnc(C(C)Nc3n[nH]c4cc(Cl)c(C(C)(C)C)cc34)n2C)C1` (centres unmarked) [Example 4, N-(1-acryloylazetidin-3-yl)-2-(1-((5-(tert-butyl)-6-chloro-1H-indazol-3-yl)amino)ethyl)-1-methyl-1H-imidazole-5-carboxamide] the figure was 1560 nM; with `[2H]C([2H])(Nc1n[nH]c2cc(Cl)c(C(C)(C)C)cc12)c1nc(C)c(C(=O)NC2CN(C(=O)C=C)C2)n1C` [Example 5, N-(1-acryloylazetidin-3-yl)-2-(((5-(tert-butyl)-6-chloro-1H-indazol-3-yl)amino)methyl-d2)-1,4-dimethyl-1H-imidazole-5-carboxamide], 10 nM.
The compound `C=CC(=O)N1CC(NC(=O)c2c(Cl)c(CNc3n[nH]c4cc(Cl)c(C(C)(C)C)cc34)nn2C)C1` [Example 6, N-(1-acryloylazetidin-3-yl)-3-(((5-(tert-butyl)-6-chloro-1H-indazol-3-yl)amino)methyl)-4-chloro-1-methyl-1H-pyrazole-5-carboxamide] displayed an IC50 of 791 nM.
`C=CC(=O)N1CC(NC(=O)c2csc(CNc3n[nH]c4cc(Cl)c(C(C)(C)C)cc34)n2)C1` [Example 7, N-(1-acryloylazetidin-3-yl)-2-(((5-(tert-butyl)-6-chloro-1H-indazol-3-yl)amino)methyl)thiazole-4-carboxamide]: the IC50 worked out at 4260 nM.
The same measure for `C=CC(=O)N1CC(NC(=O)c2cnc(CNc3n[nH]c4cc(Cl)c(C(C)(C)C)cc34)s2)C1` [Example 8, N-(1-acryloylazetidin-3-yl)-2-(((5-(tert-butyl)-6-chloro-1H-indazol-3-yl)amino)methyl)thiazole-5-carboxamide]: 783 nM; for `C=CC(=O)N1CC(NC(=O)c2cc(CNc3n[nH]c4cc(Cl)c(C(C)(C)C)cc34)nn2C)C1` [Example 9, N-(1-acryloylazetidin-3-yl)-3-(((5-(tert-butyl)-6-chloro-1H-indazol-3-yl)amino)methyl)-1-methyl-1H-pyrazole-5-carboxamide]: 3140 nM; for `C=CC(=O)N1CC(NC(=O)c2c(C)c(CNc3n[nH]c4cc(Cl)c(C(C)(C)C)cc34)nn2C)C1` [Example 10, N-(1-acryloylazetidin-3-yl)-3-(((5-(tert-butyl)-6-chloro-1H-indazol-3-yl)amino)methyl)-1,4-dimethyl-1H-pyrazole-5-carboxamide]: 129 nM.
